Reference: patent US10730911B2, “Backbone-cyclized peptidomimetics with GLP-1R modulating activity” (POLYPHOR AG, priority 2015, dated 2020)
Where a SMILES comes first, the peptide text is derived from it. [ ]: non-standard residue; d: D form. The star is where a group is joined. Tyr(Ph) = N[C@@H](Cc1ccc(Oc2ccccc2)cc1)C(=O)O; His(π-Bn) = N[C@@H](Cc1cncn1Cc1ccccc1)C(=O)O; Phe(4-NH2) = Nc1ccc(C[C@H](N)C(=O)O)cc1; 3Pal = N[C@@H](Cc1cccnc1)C(=O)O; Aic = NC1(C(=O)O)Cc2ccccc2C1; Ac6c = NC1(C(=O)O)CCCCC1; Aib = CC(C)(N)C(=O)O; Bn = c1ccc(C*)cc1

Biological target: T1, human glucagon-like peptide-1 receptor (GLP-1R) (Homo sapiens, UniProt P43220)
T1 construct: host or cells: CHO chAMPion cells
T1 sequence (P43220 24-463): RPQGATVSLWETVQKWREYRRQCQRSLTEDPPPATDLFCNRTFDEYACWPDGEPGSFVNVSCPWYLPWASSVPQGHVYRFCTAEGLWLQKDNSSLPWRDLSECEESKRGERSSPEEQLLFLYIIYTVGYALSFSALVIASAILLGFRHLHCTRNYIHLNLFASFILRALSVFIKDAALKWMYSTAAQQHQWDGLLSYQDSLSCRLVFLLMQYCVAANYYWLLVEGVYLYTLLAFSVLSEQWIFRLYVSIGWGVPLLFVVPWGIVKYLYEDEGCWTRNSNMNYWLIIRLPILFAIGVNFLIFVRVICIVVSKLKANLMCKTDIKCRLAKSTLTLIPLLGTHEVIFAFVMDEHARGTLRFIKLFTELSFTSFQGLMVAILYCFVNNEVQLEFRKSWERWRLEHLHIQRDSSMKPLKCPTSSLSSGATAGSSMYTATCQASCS
Experiment: Human GLP-1 receptor cell-based assay (flash luminescence, Target Activation phase)
Conditions: CHO chAMPion cells stably co-expressing human GLP-1R, Photina and cAMP-activated calcium channel; agonist activity; normalization by forskolin at 10 μM; ^a) values from single experiment; read-out: EC50 (μM) Target Activation (TA)
Excerpt: CHO chAMPion cells (Axxam SpA; S. Corazza, Assay Drug Dev. Technol. 2009, 7, 304-307) stably co-expressing the human glucagon-like peptide-1 receptor (GLP-1R), the Ca^2+-sensitive photoprotein PHOTINA® (S. Bovolenta et al., J. Biomol. Screen. 2007, 12, 694-704) and a mutated cAMP-activated calcium ion channel (WO2004/083803 A2) were used to monitor GLP-1R signaling after stimulation with an agonist. Activation of the Gas-coupled GPCR GLP-1R was monitored by measuring the flash luminescence of the Ca^2+-sensitive photoprotein as reporter system with FLIPR^TETRA screening instrumentation (Molecular Devices) upgraded with an ICCD Camera (MDC). For data quality check and data analysis the Genedata SCREENER® software was used.
The reference agonist GLP-1 (glucagon-like peptide-1 amide fragment 7-36) and forskolin were purchased from Sigma (cat. G8147 and F6886, respectively) and prepared according to each ligand's specifications. All handling of ligands were done to ensure proper control throughout the experiments. The steps of the implemented workflow and data analysis are mainly as follows:
Stably transfected chAMPion cells are seeded 10000 c/w in 384 MTP in Dulbecco's MEM/nutrient mix F12 (BioWhittaker cat. BE04-687F/U1; 500 mL) supplemented with sodium pyruvate (BioWhittaker cat. BE13-115E; 5 mL of 100 mM solution), HEPES (BioWhittaker cat. BE17-737E; 6.5 mL of 1M solution), sodium bicarbonate (BioWhittaker cat. BE17-613E; 25 mL of 7.5% solution), fetal bovine serum (Euroclone cat. ECS 0180L; 50 mL), penicillin-streptomycin (BioWhittaker cat. DE17-602E; 5 mL of 100×solution), 1 mg/mL G418 (selection antibiotic for GLP-1R) and 200 μg/mL hygromycin in 25 μL/well for 24 hours. On the day of the experiment, plates are removed from the incubator, freed from the growth medium, equilibrated at room temperature for 1 h, loaded with 30 μl/well of Ca^2+ free Tyrode's buffer containing 20 μM coelentrazine and 500 μM IBMX, and incubated for 4 hours at room temperature.
All compounds were tested at 8 concentrations, starting from 50 μM in quadruplicate, intra-plate (dilution step 1:2.15) to determine EC50 values. After incubation, the volume in all the wells is flattened to 20 αL by aspiration with a CYBIO®-VARIO pipettor. First Injection (10 μL of test compounds in Ca^2+ free Tyrode's buffer, DMSO 0.5% v/v and BSA 0.01%; or 10 μL of reference compounds GLP-1 or forskolin in Ca′ free Tyrode's buffer, DMSO 0.5% v/v and BSA 0.01%) is performed by the FLIPR^TETRA and the kinetic response is optionally monitored over a period of 60 seconds. Incubation for 30 minutes at room temperature is followed by the Second Injection (Tyrode's buffer+10 mM CaCl2)) and the kinetic response is monitored over a period of 60 seconds.
The kinetic response is divided into two distinct phases: monitoring the kinetic response after the First Injection, termed Compound Addition (CA), and monitoring the kinetic response after the Second Injection of 10 mM CaCl2, termed Target Activation (TA). Agonist activity of compounds is evaluated in the Target Activation (TA) phase and it is based on normalization to TA activation by forskolin at 10 μM or GLP-1 at 3.16 nM (EC100)
A good correlation was observed between EC50, data normalized by forskolin and by GLP-1.

SMILES	EC50 [µM]
CC(C)C[C@@H]1NC(=O)[C@H](CC(C)C)NC(=O)[C@H](CCC(=O)O)NC(=O)[C@H](Cc2ccccc2)NC(=O)C2(CCCCC2)NC(=O)[C@H]2CCCN2C(=O)[C@H](Cc2ccccc2)NC(=O)[C@H](CCC(=O)O)NC(=O)[C@H](Cc2c[nH]c3ccccc23)NC(=O)[C@H](C)NC1=O [Ex. 43, cyclo(-Phe-Glu-Leu-Leu-Ala-Trp-Glu-Phe-^DPro-Chx-)] (cyclo(FELLAWEF[dP][Ac6c]))	4.5 ± 2.6
C[C@@H]1NC(=O)[C@H](Cc2ccc(O)cc2)NC(=O)[C@H](CCC(N)=O)NC(=O)[C@H](Cc2ccc(Oc3ccccc3)cc2)NC(=O)[C@H](Cc2ccccc2)NC(=O)C2(CCCCC2)NC(=O)[C@H]2CCCN2C(=O)[C@H](Cc2ccc(O)cc2)NC(=O)[C@H](CCC(=O)O)NC(=O)[C@H](Cc2c[nH]c3ccccc23)NC1=O [compound 7, cyclo(-Phe-Tyr(Ph)-Gln-Tyr-Ala-Trp-Glu-Tyr-^DPro-Chx-)] (cyclo(F[Tyr(Ph)]QYAWEY[dP][Ac6c]))	0.57 ± 0.58
COc1ccc(C[C@@H]2NC(=O)[C@H](CCC(N)=O)NC(=O)[C@H](Cc3c[nH]c4ccccc34)NC(=O)[C@H](Cc3ccccc3)NC(=O)C3(CCCCC3)NC(=O)[C@H]3CCCN3C(=O)[C@H](Cc3ccc(O)cc3)NC(=O)[C@H](CCC(=O)O)NC(=O)[C@H](Cc3c[nH]c4ccccc34)NC(=O)[C@H](C)NC2=O)cc1 [compound 8, cyclo(-Phe-Trp-Gln-Tyr(Me)-Ala-Trp-Glu-Tyr-^DPro-Chx-)] (cyclo(FWQY(Me)AWEY[dP][Ac6c]))	0.35 ± 0.3
COc1ccc(C[C@@H]2NC(=O)[C@H](CCC(=O)O)NC(=O)[C@H](Cc3c[nH]c4ccccc34)NC(=O)[C@H](C)NC(=O)[C@H](Cc3ccc(O)cc3)NC(=O)[C@H](CCC(N)=O)NC(=O)[C@H](Cc3c[nH]c4ccccc34)NC(=O)[C@H](Cc3ccccc3)NC(=O)C3(CCCCC3)NC(=O)[C@H]3CCCN3C2=O)cc1 [compound 9, cyclo(-Phe-Trp-Gln-Tyr-Ala-Trp-Glu-Tyr(Me)-^DPro-Chx-)] (cyclo(FWQYAWEY(Me)[dP][Ac6c]))	0.8 ± 0.69
C[C@@H]1NC(=O)[C@H](Cc2ccc(O)cc2)NC(=O)[C@H](CCC(N)=O)NC(=O)[C@H](Cc2ccccc2)NC(=O)[C@H](Cc2ccccc2)NC(=O)C2(CCCCC2)NC(=O)[C@H]2CCCN2C(=O)[C@H](CCCNC(=N)N)NC(=O)[C@H](CCC(=O)O)NC(=O)[C@H](Cc2c[nH]c3ccccc23)NC1=O [compound 10, cyclo(-Phe-Phe-Gln-Tyr-Ala-Trp-Glu-Arg-^DPro-Chx-)] (cyclo(FFQYAWER[dP][Ac6c]))	0.39 ± 0.23
C[C@@H]1NC(=O)[C@H](Cc2ccc(O)cc2)NC(=O)[C@H](CCC(N)=O)NC(=O)[C@H](Cc2ccc(Oc3ccccc3)cc2)NC(=O)[C@H](Cc2ccccc2)NC(=O)C(C)(C)NC(=O)[C@H]2CCCN2C(=O)[C@H](CCCNC(=N)N)NC(=O)[C@H](CCC(=O)O)NC(=O)[C@H](Cc2c[nH]c3ccccc23)NC1=O [compound 11, cyclo(-Phe-Tyr(Ph)-Gln-Tyr-Ala-Trp-Glu-Arg-^DPro-Aib-)] (cyclo(F[Tyr(Ph)]QYAWER[dP][Aib]))	0.54 ± 0.43
CC(C)C[C@@H]1NC(=O)[C@H](Cc2c[nH]c3ccccc23)NC(=O)[C@H](Cc2ccccc2)NC(=O)C2(CCCCC2)NC(=O)[C@H]2CCCN2C(=O)[C@H](Cc2ccc(O)cc2)NC(=O)[C@H](CCC(=O)O)NC(=O)[C@H](Cc2c[nH]c3ccccc23)NC(=O)[C@H](C)NC(=O)[C@H](Cc2ccc(O)cc2)NC1=O [compound 12, cyclo(-Phe-Trp-Leu-Tyr-Ala-Trp-Glu-Tyr-^DPro-Chx-)] (cyclo(FWLYAWEY[dP][Ac6c]))	0.48 ± 0.24
CC(C)C[C@@H]1NC(=O)[C@H](CCC(=O)O)NC(=O)[C@H](Cc2ccccc2)NC(=O)C2(Cc3ccccc3C2)NC(=O)[C@H]2CCCN2C(=O)[C@H](Cc2ccc(O)cc2)NC(=O)[C@H](CCC(=O)O)NC(=O)[C@H](Cc2c[nH]c3ccccc23)NC(=O)[C@H](C)NC(=O)[C@H](Cc2ccc(O)cc2)NC1=O [compound 13, cyclo(-Phe-Glu-Leu-Tyr-Ala-Trp-Glu-Tyr-^DPro-Ind-)] (cyclo(FELYAWEY[dP][Aic]))	0.66 ± 0.25
C[C@@H]1NC(=O)[C@H](Cc2ccc(O)cc2)NC(=O)[C@H](CCC(N)=O)NC(=O)[C@H](Cc2ccc(O)cc2)NC(=O)[C@H](Cc2ccccc2)NC(=O)C2(CCCCC2)NC(=O)[C@H]2CCCN2C(=O)[C@H](Cc2ccc(O)cc2)NC(=O)[C@H](CCC(=O)O)NC(=O)[C@H](Cc2c[nH]c3ccccc23)NC1=O [compound 14, cyclo(-Phe-Tyr-Gln-Tyr-Ala-Trp-Glu-Tyr-^DPro-Chx-)] (cyclo(FYQYAWEY[dP][Ac6c]))	0.72 ± 0.43

Now those with a lower EC50, led by results:

EC50 [µM]	SMILES
0.09 ± 0.05	C[C@@H]1NC(=O)[C@H](Cc2ccc(O)cc2)NC(=O)[C@H](CCC(N)=O)NC(=O)[C@H](Cc2ccccc2)NC(=O)[C@H](Cc2ccccc2)NC(=O)C2(CCCCC2)NC(=O)[C@H]2CCCN2C(=O)[C@H](Cc2ccc(O)cc2)NC(=O)[C@H](CCC(=O)O)NC(=O)[C@H](Cc2c[nH]c3ccccc23)NC1=O [Ex. 1, cyclo(-Phe-Phe-Gln-Tyr-Ala-Trp-Glu-Tyr-^DPro-Chx-)] (cyclo(FFQYAWEY[dP][Ac6c]))
0.09 ± 0.02	C[C@@H]1NC(=O)[C@H](Cc2ccc(O)cc2)NC(=O)[C@H](CCC(N)=O)NC(=O)[C@H](Cc2cncn2Cc2ccccc2)NC(=O)[C@H](Cc2ccccc2)NC(=O)C2(CCCCC2)NC(=O)[C@H]2CCCN2C(=O)[C@H](Cc2ccc(O)cc2)NC(=O)[C@H](CCC(=O)O)NC(=O)[C@H](Cc2c[nH]c3ccccc23)NC1=O [Ex. 4, cyclo(-Phe-His(Bn)-Gln-Tyr-Ala-Trp-Glu-Tyr-^DPro-Chx-)] (cyclo(F[His(π-Bn)]QYAWEY[dP][Ac6c]))
0.28 ± 0.26	C[C@@H]1NC(=O)[C@H](Cc2ccc(O)cc2)NC(=O)[C@H](CCC(N)=O)NC(=O)[C@H](Cc2cccnc2)NC(=O)[C@H](Cc2ccccc2)NC(=O)C2(CCCCC2)NC(=O)[C@H]2CCCN2C(=O)[C@H](Cc2ccc(O)cc2)NC(=O)[C@H](CCC(=O)O)NC(=O)[C@H](Cc2c[nH]c3ccccc23)NC1=O [compound 2, cyclo(-Phe-3Pal-Gln-Tyr-Ala-Trp-Glu-Tyr-^DPro-Chx-)] (cyclo(F[3Pal]QYAWEY[dP][Ac6c]))
0.18 ± 0.18	C[C@@H]1NC(=O)[C@H](Cc2ccc(O)cc2)NC(=O)[C@H](CCC(N)=O)NC(=O)[C@H](Cc2ccc(N)cc2)NC(=O)[C@H](Cc2ccccc2)NC(=O)C2(CCCCC2)NC(=O)[C@H]2CCCN2C(=O)[C@H](Cc2ccc(O)cc2)NC(=O)[C@H](CCC(=O)O)NC(=O)[C@H](Cc2c[nH]c3ccccc23)NC1=O [compound 3, cyclo(-Phe-Phe(4NH2)-Gln-Tyr-Ala-Trp-Glu-Tyr-^DPro-Chx-)] (cyclo(F[Phe(4-NH2)]QYAWEY[dP][Ac6c]))
0.15 ± 0.05	C[C@@H]1NC(=O)[C@H](Cc2ccc(O)cc2)NC(=O)[C@H](CCC(N)=O)NC(=O)[C@H](Cc2ccc(OCc3ccccc3)cc2)NC(=O)[C@H](Cc2ccccc2)NC(=O)C2(CCCCC2)NC(=O)[C@H]2CCCN2C(=O)[C@H](Cc2ccc(O)cc2)NC(=O)[C@H](CCC(=O)O)NC(=O)[C@H](Cc2c[nH]c3ccccc23)NC1=O [compound 5, cyclo(-Phe-Tyr(Bn)-Gln-Tyr-Ala-Trp-Glu-Tyr-^DPro-Chx-)] (cyclo(FY(Bn)QYAWEY[dP][Ac6c]))
0.19 ± 0.12	C[C@@H]1NC(=O)[C@H](Cc2ccc(O)cc2)NC(=O)[C@H](CCC(N)=O)NC(=O)[C@H](Cc2ccc(Oc3ccccc3)cc2)NC(=O)[C@H](Cc2ccccc2)NC(=O)C2(CCCCC2)NC(=O)[C@H]2CCCN2C(=O)[C@H](CCCNC(=N)N)NC(=O)[C@H](CCC(=O)O)NC(=O)[C@H](Cc2c[nH]c3ccccc23)NC1=O [compound 6, cyclo(-Phe-Tyr(Ph)-Gln-Tyr-Ala-Trp-Glu-Arg-^DPro-Chx-)] (cyclo(F[Tyr(Ph)]QYAWER[dP][Ac6c]))
